{"source": "patent US7288273B1", "about": "“Gallotannins and ellagitannins as regulators of cytokine release” (The Penn State Research Foundation, priority 2000, dated 2007)", "key": {"[1]": {"system": "IL-1β secretion from h-PBMC's", "experiment": "IL-1β release from h-PBMC's, ELISA", "type": "cell-based, human", "settings": "h-PBMC's", "procedure": "(§1) Authentic samples of agrimoniin and coriariin A were supplied by Professor Yoshida (Okayama University, Japan). Dimeric gallotannin (analog of coriariin A) and β-D-PGG were synthesized as described. LPS (E. coli 055:B5 phenol extract, MW range 50-100 KD). Ficoll-Histopaque (ρ=1.077 g/mL), Fetal Bovine Serum, sterile, hybridoma tested (FCS), gentamicin 10 mg/mL. L-glutamine, 200 mM. Dextran B-512 Leuconostoc Av M.W. 580000, and Trypan Blue stain were purchased from Sigma. Hanks Buffer Saline Solution 1×, with phenol red, mediatech (HBSS) and RPMI 1640 1×, mediatech were purchased from Fisher Scientific, Human IL-1β and TNF-α Enzyme Linked ImmunoSorbent Assay (ELISA) kits were purchased from R and D Systems, Minneapolis, Minn. Fresh heparinized blood was obtained from health human subjects (ages 20-34).\n(§2) Dose-Response Data: General Procedure. H-PBMC's were isolated by reported procedures (10. 18). The cells counted and the viability was determined by Trypan Blue exclusion (typically, viability exceeded 95%). The concentration of the cells in the 0.5 mL wells was adjusted to 1×10^6 cells/well by diluting with the required amount of RPMI.\n(§3) The appropriate amount of a tannin (or LPS) stock solution in HBSS was added to each well to furnish the concentration values reported in the Figures. […] The culture plates were incubated in a 5% CO2, 37° C. humidified incubator for the indicated time. At the end of the time interval, 450 μL of the culture supernatant from each well was harvested, after centrifugation at 400 g, 25° C., 10 min. with brake, and stored at −78° C. pending ELISA analysis for the cytokine(s). The ELISA assays were conducted per the manufacturer's instructions using standard calibration curves to calculate cytokine concentration from observed absorbance readings. The cytokine values reported are averages of three runs±SE.\n(§4) The dimeric antitumor ellagitannins coriariin A and agrimoniin, the monomeric gallotannin β-D-pentagalloylglucose (β-D-PGG) and the dimeric gallotannin of this invention were all examined in this study. The dimeric gallotannin is an analog of coriariin A and is identical to the parent ellagitannin except that the galloyl rings at O(4) and O(6) are not joined in a hexahydroxydiphenoyl (HHDP) linkage. h-PBMC's were incubated with the compound under investigation for the indicated length of time and the amounts of both IL-1β and, independently, TNF-α, present in the culture supernatants was determined using commercially available ELISA kits. In each case, LPS was used as a positive control while untreated cells were reserved as negative controls.\nIn the third study, compounds 17c-20c were examined for their ability to induce secretion of IL-1β from h-PBMC's (FIG. 16). Recall from the introduction that the cytokine IL-1β is also released in an LPS-stimulated septic shock response. The compounds that cause very little secretion of IL-1β or none at all will be the optimal compounds for potential septic shock therapeutics because they will be less likely themselves to induce a septic shock response."}, "[2]": {"system": "L929 murine fibroblast", "experiment": "qualitative L929 murine fibroblast lysis assay of h-PBMC supernatant", "type": "cell-based", "source_text": "This indirect measure of TNF-α levels in the h-PBMC supernatant provided the first evidence which implicated this cytokine in tannin-mediated antitumor activity and encouraged a more quantitative assessment of the TNF-α liberating capacity of agrimoniin and the related species as described below."}, "[3]": {"system": "sarcoma-180 tumors", "settings": "cited from earlier work; for antitumor effect, in words: mice infected with sarcoma-180 tumors; for life span increase / regressors: Miyamoto's mouse studies, sarcoma-180"}, "[4]": {"system": "IL-1β secretion from h-PBMC's", "settings": "cited from earlier work"}, "[5]": {"system": "TNF-α secretion from h-PBMC's", "experiment": "TNF-α release from h-PBMC's, ELISA", "type": "cell-based, human", "procedure": "as §1, §2, §3, §4\nIn the first study, the induction of TNF-α secretion from h-PBMC's in the presence of each compound 17c-21c was measured. The h-PBMC's were incubated with each compound for 24 hours. The TNF-α levels in the cell culture supernatant were assayed by Enzyme Linked ImmunoSorbant Assay (ELISA). The data point for each assay represent the mean of triplicate measurements. […] (See FIG. 11)."}, "[6]": {"system": "LPS induced TNF-α secretion from h-PBMC's", "experiment": "Inhibition of LPS induced TNF-α secretion from h-PBMC's", "type": "cell-based, human", "settings": "h-PBMC's", "procedure": "In the second study, the ability of compounds 17c-20c to inhibit LPS induced TNF-α production in h-PBMC's was investigated using four assays. The first experiment was a kinetics run in which the h-PBMC's were initially incubated with a fixed concentration of LPS (5 μg/mL) for 45 minutes. This incubation period was followed by addition of a fixed concentration (10 μg/mL) of compounds 17c-20c. The cells were harvested at varying intervals of time. […] The optimal time was determined by comparing the amount of TNF-α secreted by LPS alone to the amount of TNF-α secreted by LPS and substrate at each time point.\nThe second assay determined the minimum amount of substrate required for inhibition. LPS (10 μg/mL) was incubated with h-PBMC's for 45 minutes followed by addition of 17c-20c at varying concentrations. The cell culture supernatant was harvested after 8 hours. The inherent variability in using cells from different subjects, or in the day of assay, made it difficult to compare overall effectiveness of inhibitors. Therefore, to more easily identify the concentration at which maximum inhibition occurs for a given compound, the TNF-α secretion was normalized by calculating a percent of maximum secretion value (based on LPS alone) (FIG. 13). […] The optimal concentration for inhibition varied between substrates, but the general dose response trend was the same. Overall, the maximum inhibition was 45% for 18c and 20c, and 25% for 19c.\nThe third assay investigated the ability of 17c, 18c, and 20c to inhibit LPS induced TNF-α secretion using a smaller dosage of LPS (5 μg/mL) (FIG. 14). Again, the response was dose dependent. The maximum inhibition was 45% for 17c and 20c, and 35% for 18c.\nIn the fourth assay the varying concentrations of substrates 17c-20c and LPS were added at the same time to determine the effect of addition sequence on the inhibition of TNF-α secretion (FIG. 15). The addition time seemed to make a difference in the overall dose response trend. However, maximum inhibition was the same as when the compounds were added 45 minutes after LPS addition (about 40% for each compound).\nFinally, in the last study, analogs 19c and 20c were again tested for inhibition LPS induced TNF-α secretion (FIG. 17). In this assay a smaller dose of LPS was used to determine if inhibition was greater when much lower doses of LPS were present. The substrates were added 45 minutes after LPS addition and the cells were harvested after 8 hours. It doesn't appear as though the substrates are better inhibitors when smaller amounts of LPS are used, again perhaps reflecting receptor saturation with LPS at this dosage."}, "[7]": {"system": "LPS induced secretion of TNF-α", "experiment": "In vivo study in rats given LPS with or without β-PGG", "procedure": "The ability of β-PGG to function in vivo was investigated in collaboration with Dr. Charles Lang of the Hershey Medical School. In this experiment, two groups of rats were used. One group was intravenously administered 1 mg/kg of LPS as well as 25 mg of β-PGG. The second group was given only 1 mg/kg of LPS. […] These preliminary in vivo results were encouraging, however several problems with the use of β-PGG as an inhibitor are evident. A large amount of β-PGG was required to elicit inhibition because β-PGG is a small monomeric gallotannin that is able to interact with other blood proteins such as rat serum albumin."}, "[8]": {"settings": "in vivo; cited from earlier work"}, "[9]": {"settings": "fixed concentrations, time course"}, "[10]": {"settings": "rats, 1 mg/kg LPS intravenously and 25 mg β-PGG"}}, "note": "Several values for one entry are separate records, joined by “and”; a condition that tells them apart may be missing. Equal entries are not always repeated.", "data": [{"molecule": "O=C(O[C@H]1O[C@@H]2COC(=O)c3cc(O)c(O)c(O)c3-c3c(cc(O)c(O)c3O)C(=O)O[C@H]2[C@@H]2OC(=O)c3cc(O)c(O)c(O)c3-c3c(cc(O)c(O)c3O)C(=O)O[C@@H]12)c1cc(O)c(O)c(Oc2c(C(=O)O[C@H]3O[C@@H]4COC(=O)c5cc(O)c(O)c(O)c5-c5c(cc(O)c(O)c5O)C(=O)O[C@H]4[C@@H]4OC(=O)c5cc(O)c(O)c(O)c5-c5c(cc(O)c(O)c5O)C(=O)O[C@@H]34)cc(O)c(O)c2O)c1", "note": "[agrimoniin]", "values": [{"measurement": "IL-1β secreted above blank", "setting": "[1]; 4 h treatment with 28 μM agrimoniin", "value": "ca. 1 ng/mL"}, {"measurement": "release of TNF-α, indirect measure by L929 lysis", "setting": "[2]", "value": "promoted release of TNF-α in substantial amounts"}, {"measurement": "antitumor effect, in words", "setting": "[3]", "value": "induce tumor regression"}, {"measurement": "IL-1β secreted (reported earlier)", "setting": "[4]; 20 μM agrimoniin", "value": "ca. 1.2 ng/mL"}, {"measurement": "time of maximal IL-1β secretion", "setting": "[4]; agrimoniin-mediated, Miyamoto", "value": "ca. 24 h"}]}, {"molecule": "O=C(OCC1OC(OC(=O)c2cc(O)c(O)c(O)c2)[C@H](OC(=O)c2cc(O)c(O)c(O)c2)[C@@H](OC(=O)c2cc(O)c(O)c(O)c2)C1OC(=O)c1cc(O)c(O)c(O)c1)c1cc(O)c(O)c(O)c1", "note": "(stereo partly drawn) [Compound 1, β-D-pentagalloylglucose]", "values": [{"measurement": "IL-1β detected at 4 h reading", "setting": "[1]; fixed concentrations, 4 h", "value": "only trace amounts"}, {"measurement": "time of maximum IL-1β discharge", "setting": "[1]; [9]", "value": "ca. 24 h"}, {"measurement": "IL-1β secretion from h-PBMC's, in words", "setting": "[1]; listed as β-D-PGG", "value": "effective at stimulating the production of IL-1β"}, {"measurement": "IL-1β secretion from h-PBMC's, in words", "setting": "[1]; listed as β-PGG", "value": "high levels of IL-1β"}, {"measurement": "TNF-α secretion from h-PBMC's, in words", "setting": "[5]", "value": "much less TNF-α discharge"}, {"measurement": "TNF-α detected at 4 h reading", "setting": "[5]; fixed concentrations, 4 h", "value": "only trace amounts"}, {"measurement": "time of maximum TNF-α discharge", "setting": "[5]; [9]", "value": "ca. 24 h"}, {"measurement": "inhibition of LPS induced TNF-α secretion from h-PBMC's, in words", "setting": "[6]", "value": "can inhibit LPS induced secretion of TNF-α"}, {"measurement": "TNF-α secreted from 90 min", "setting": "[7]; rats given LPS 1 mg/kg intravenously + 25 mg β-PGG (LPS + 1), 90 min, individual rats, ± SD", "value": "6919.4 ± 823.2 pg/mL and 4509.4 ± 583.3 pg/mL and 8060.7 ± 918.2 pg/mL and 1928.4 ± 331.5 pg/mL"}, {"measurement": "TNF-α secreted after 180 min", "setting": "[7]; rats given LPS 1 mg/kg intravenously + 25 mg β-PGG (LPS + 1), 180 min, individual rats, ± SD", "value": "733.9 ± 28.3 pg/mL and 291.7 ± 68.0 pg/mL and 1347.5 ± 150.4 pg/mL and 129.9 ± 105.5 pg/mL"}, {"measurement": "TNF-α secretion compared to LPS-only rats, in words", "setting": "[7]; [10]", "value": "suppressed levels of TNF-α secretion"}, {"measurement": "septic shock response (blood pressure)", "setting": "[7]; [10]", "value": "low blood pressure was still observed"}, {"measurement": "life span increase", "setting": "[3]", "value": 82, "unit": "%"}, {"measurement": "regressors", "setting": "[3]", "value": "0/6"}, {"measurement": "antitumor effect, in words", "setting": "[3]", "value": "much less effective antitumor agents"}]}, {"molecule": "O=C(OC1OC2COC(=O)c3cc(O)c(O)c(O)c3-c3c(cc(O)c(O)c3O)C(=O)OC2C(OC(=O)c2cc(O)c(O)c(O)c2)C1OC(=O)c1cc(O)c(O)c(O)c1)c1cc(O)c(O)c(Oc2c(C(=O)OC3OC4COC(=O)c5cc(O)c(O)c(O)c5-c5c(cc(O)c(O)c5O)C(=O)OC4C(OC(=O)c4cc(O)c(O)c(O)c4)C3OC(=O)c3cc(O)c(O)c(O)c3)cc(O)c(O)c2O)c1", "note": "(stereo not drawn) [coriariin A]", "values": [{"measurement": "IL-1β inducing ability relative to agrimoniin on a molar basis", "setting": "[1]; 4 h", "value": "twice that of agrimoniin"}, {"measurement": "TNF-α secretion from h-PBMC's, in words", "setting": "[5]", "value": "higher levels of TNF-α"}, {"measurement": "release of TNF-α, indirect measure by L929 lysis", "setting": "[2]", "value": "promoted release of TNF-α in substantial amounts"}, {"measurement": "life span increase", "setting": "[3]", "value": 238, "unit": "%"}, {"measurement": "regressors", "setting": "[3]", "value": "3/6"}, {"measurement": "antitumor effect, in words", "setting": "[3]", "value": "induce tumor regression"}]}, {"molecule": "TNF-α", "values": [{"measurement": "clearance from serum, t1/2", "setting": "[8]", "value": "6.5 to 10.5", "unit": "min"}]}]}
